Like-named read-outs stand apart in the source and are kept apart here.
Key:
CK1δ = CK1δ (Homo sapiens, UniProt P48730); experiment: CK1δ kinase assay (Caliper LabChip electrophoretic separation of fluoresceinated peptide substrate and product); format: biochemical; details: 200 pM CK1δ, 50 μM ATP, 1.5 μM peptide, 22 hours at room temperature
How it was run: (§1)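 Reactions ran 22 hours at room temperature and were stopped with EDTA. Phosphorylated product and unphosphorylated substrate were then separated electrophoretically. Compounds were tested at eleven concentrations, and IC50 values came from non-linear regression.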

CK1ε = CK1ε (Homo sapiens, UniProt P49674); experiment: CK1ε kinase assay (Caliper LabChip electrophoretic separation of fluoresceinated peptide substrate and product); format: biochemical; details: 200 pM CK1ε, 50 μM ATP, 1.5 μM peptide, 22 hours at room temperature
How it was run: as §1

Sequence of CK1ε (P49674 whole entry): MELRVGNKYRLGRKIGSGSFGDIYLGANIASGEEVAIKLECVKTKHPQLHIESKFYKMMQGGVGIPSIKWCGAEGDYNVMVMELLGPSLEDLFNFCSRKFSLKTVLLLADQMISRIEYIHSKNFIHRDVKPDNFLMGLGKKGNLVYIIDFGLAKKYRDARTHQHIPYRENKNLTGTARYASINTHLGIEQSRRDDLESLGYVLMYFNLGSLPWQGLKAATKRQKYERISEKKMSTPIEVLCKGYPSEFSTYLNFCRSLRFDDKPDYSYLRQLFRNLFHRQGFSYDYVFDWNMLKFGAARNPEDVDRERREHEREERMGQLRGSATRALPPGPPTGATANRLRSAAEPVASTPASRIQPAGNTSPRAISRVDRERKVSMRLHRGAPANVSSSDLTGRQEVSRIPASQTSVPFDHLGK
Sequence of CK1δ (P48730 whole entry): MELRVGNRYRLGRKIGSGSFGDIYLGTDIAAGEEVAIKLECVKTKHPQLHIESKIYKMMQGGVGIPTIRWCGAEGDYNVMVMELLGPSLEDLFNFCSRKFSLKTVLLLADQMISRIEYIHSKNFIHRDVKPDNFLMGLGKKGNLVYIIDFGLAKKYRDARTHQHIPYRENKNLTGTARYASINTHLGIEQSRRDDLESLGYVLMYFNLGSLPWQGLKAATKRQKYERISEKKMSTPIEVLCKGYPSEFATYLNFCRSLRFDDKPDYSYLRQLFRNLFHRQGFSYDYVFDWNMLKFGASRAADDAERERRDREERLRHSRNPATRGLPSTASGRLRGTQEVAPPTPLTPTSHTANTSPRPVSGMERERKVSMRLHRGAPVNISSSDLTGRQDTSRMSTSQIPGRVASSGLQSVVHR

| Structure (SMILES) | IC50 (CK1δ; read-out: CK1δ IC50 range) [nM] | IC50 (CK1ε; read-out: CK1ε IC50 range) [nM] | IC50 (CK1δ; read-out: CK1δ) [nM] | IC50 (CK1ε; read-out: CK1ε) [nM] |
| --- | --- | --- | --- | --- |
| CC(C)(C)NC(=O)N1CCn2nc(-c3ccc(F)cc3)c(C(N)=O)c2C1 [Compound 1] | 10 to 100 | 10 to 100 | 27.8 | 90.3 |
| CC(C)NC(=O)N1CCn2nc(-c3ccc(F)cc3)c(C(N)=O)c2C1 [Compound 2, 2-(4-Fluorophenyl)-N^5-isopropyl-6,7-dihydropyrazolo[1,5-a]pyrazine-3,5(4H)-dicarboxamide] | 10 to 100 | 10 to 100 | – | – |
| CC(C)(C)NC(=O)N1CCn2nc(-c3cccc(F)c3)c(C(N)=O)c2C1 [Compound 4, N^5-(tert-Butyl)-2-(3-fluorophenyl)-6,7-dihydropyrazolo[1,5-a]pyrazine-3,5(4H)-dicarboxamide] | 10 to 100 | 10 to 100 | 10.9 | 38.1 |
| CC(C)NC(=O)N1CCn2nc(-c3cccc(F)c3)c(C(N)=O)c2C1 [Compound 5, 2-(3-Fluorophenyl)-N^5-isopropyl-6,7-dihydropyrazolo[1,5-a]pyrazine-3,5(4H)-dicarboxamide] | 10 to 100 | 10 to 100 | – | – |
| NC(=O)c1c(-c2cccc(F)c2)nn2c1CN(C(=O)NC1CCCCC1)CC2 [Compound 6, N^5-Cyclohexyl-2-(3-fluorophenyl)-6,7-dihydropyrazolo[1,5-a]pyrazine-3,5(4H)-dicarboxamide] | 0.01 to 10 | 0.01 to 10 | 2.4 | 7.2 |
| NC(=O)c1c(-c2cccc(F)c2)nn2c1CN(C(=O)NC1CC1)CC2 [Compound 7, N^5-Cyclopropyl-2-(3-fluorophenyl)-6,7-dihydropyrazolo[1,5-a]pyrazine-3,5(4H)-dicarboxamide] | 10 to 100 | 10 to 100 | – | – |
| NC(=O)c1c(-c2cccc(F)c2)nn2c1CN(C(=O)NC1CCC1)CC2 [Compound 8, N^5-Cyclobutyl-2-(3-fluorophenyl)-6,7-dihydropyrazolo[1,5-a]pyrazine-3,5(4H)-dicarboxamide] | 10 to 100 | 10 to 100 | – | – |
| CC1(NC(=O)N2CCn3nc(-c4cccc(F)c4)c(C(N)=O)c3C2)CC1 [Compound 11, 2-(3-Fluorophenyl)-N^5-(1-methylcyclopropyl)-6,7-dihydropyrazolo[1,5-a]pyrazine-3,5(4H)-dicarboxamide] | 10 to 100 | 10 to 100 | – | – |
| NC(=O)c1c(-c2cccc(F)c2)nn2c1CN(C(=O)NC1CCC(F)(F)CC1)CC2 [Compound 12, N^5-(4,4-Difluorocyclohexyl)-2-(3-fluorophenyl)-6,7-dihydropyrazolo[1,5-a]pyrazine-3,5(4H)-dicarboxamide] | 10 to 100 | 100 to 2000 | – | – |
| CC(C)(NC(=O)N1CCn2nc(-c3cccc(F)c3)c(C(N)=O)c2C1)C(F)(F)F [Compound 13, 2-(3-Fluorophenyl)-N^5-(1,1,1-trifluoro-2-methylpropan-2-yl)-6,7-dihydropyrazolo[1,5-a]pyrazine-3,5(4H)-dicarboxamide] | 0.01 to 10 | 10 to 100 | – | – |
| NC(=O)c1c(-c2cccc(F)c2)nn2c1CN(C(=O)NCCC(F)(F)F)CC2 [Compound 14, 2-(3-Fluorophenyl)-N^5-(3,3,3-trifluoropropyl)-6,7-dihydropyrazolo[1,5-a]pyrazine-3,5(4H)-dicarboxamide] | 10 to 100 | 10 to 100 | – | – |
| NC(=O)c1c(-c2cccc(F)c2)nn2c1CN(C(=O)NCC(F)(F)F)CC2 [Compound 15, 2-(3-Fluorophenyl)-N^5-(2,2,2-trifluoroethyl)-6,7-dihydropyrazolo[1,5-a]pyrazine-3,5(4H)-dicarboxamide] | 10 to 100 | 100 to 2000 | – | – |
| CC1(C)CC(NC(=O)N2CCn3nc(-c4cccc(F)c4)c(C(N)=O)c3C2)CC(C)(C)N1 [Compound 18, 2-(3-Fluorophenyl)-N^5-(2,2,6,6-tetramethylpiperidin-4-yl)-6,7-dihydropyrazolo[1,5-a]pyrazine-3,5(4H)-dicarboxamide] | 10 to 100 | 100 to 2000 | – | – |
| NC(=O)c1c(-c2cccc(F)c2)nn2c1CN(C(=O)NC1(C(F)(F)F)CC1)CC2 [Compound 20, 2-(3-Fluorophenyl)-N^5-(1-(trifluoromethyl)cyclopropyl)-6,7-dihydropyrazolo[1,5-a]pyrazine-3,5(4H)-dicarboxamide] | 10 to 100 | 10 to 100 | – | – |
| NC(=O)c1c(-c2cccc(F)c2)nn2c1CN(C(=O)NC13CC(C1)C3)CC2 [Compound 24, N^5-(Bicyclo[1.1.1]pentan-1-yl)-2-(3-fluorophenyl)-6,7-dihydropyrazolo[1,5-a]pyrazine-3,5(4H)-dicarboxamide] | 10 to 100 | 10 to 100 | – | – |

The remaining lines, values ahead:

| IC50 (CK1δ; read-out: CK1δ IC50 range) [nM] | IC50 (CK1ε; read-out: CK1ε IC50 range) [nM] | IC50 (CK1δ; read-out: CK1δ) [nM] | IC50 (CK1ε; read-out: CK1ε) [nM] | Structure (SMILES) |
| --- | --- | --- | --- | --- |
| 0.01 to 10 | 0.01 to 10 | – | – | CC1CN(C(=O)NC2CC(F)(F)C2)Cc2c(C(N)=O)c(-c3cccc(Cl)c3)nn21 (single isomer, unassigned) [Compound A110, 2-(3-Chlorophenyl)-N^5-(3,3-difluorocyclobutyl)-7-methyl-6,7-dihydropyrazolo[1,5-a]pyrazine-3,5(4H)-dicarboxamide] |
| 0.01 to 10 | 0.01 to 10 | – | – | CC1CN(C(=O)NC2CC(F)(F)C2)Cc2c(C(N)=O)c(-c3cccc(Cl)c3)nn21 (single isomer, unassigned) [Compound A111, 2-(3-Chlorophenyl)-N^5-(3,3-difluorocyclobutyl)-7-methyl-6,7-dihydropyrazolo[1,5-a]pyrazine-3,5(4H)-dicarboxamide] |
| 0.01 to 10 | 0.01 to 10 | – | – | NC(=O)c1c(-c2cccc(Cl)c2)nn2c1CN(C(=O)NC1CC(F)(F)C1)CC2CF (single isomer, unassigned) [Compound A112, 2-(3-Chlorophenyl)-N^5-(3,3-difluorocyclobutyl)-7-(fluoromethyl)-6,7-dihydropyrazolo[1,5-a]pyrazine-3,5(4H)-dicarboxamide] |
| 0.01 to 10 | 0.01 to 10 | – | – | NC(=O)c1c(-c2cccc(Cl)c2)nn2c1CN(C(=O)NC1CC(F)(F)C1)CC2CF (single isomer, unassigned) [Compound A113, 2-(3-Chlorophenyl)-N^5-(3,3-difluorocyclobutyl)-7-(fluoromethyl)-6,7-dihydropyrazolo[1,5-a]pyrazine-3,5(4H)-dicarboxamide] |
| 100 to 2000 | 10 to 100 | – | – | CC(C)(C)NC(=O)N1Cc2c(C(N)=O)c(-c3ccc(F)c(Cl)c3)nn2C(C(C)(C)C)C1 (single isomer, unassigned) [Compound A117, N^5-7-Di-tert-butyl-2-(3-chloro-4-fluorophenyl)-6,7-dihydropyrazolo[1,5-a]pyrazine-3,5(4H)-dicarboxamide] |
| 10 to 100 | 10 to 100 | – | – | CC(C)C1CN(C(=O)NC(C)(C)C)Cc2c(C(N)=O)c(-c3ccc(F)c(Cl)c3)nn21 (single isomer, unassigned) [Compound A119, N^5-(tert-Butyl)-2-(3-chloro-4-fluorophenyl)-7-isopropyl-6,7-dihydropyrazolo[1,5-a]pyrazine-3,5(4H)-dicarboxamide] |
| 0.01 to 10 | 0.01 to 10 | – | – | CC(C)C1CN(C(=O)NC(C)(C)C)Cc2c(C(N)=O)c(-c3ccc(F)c(Cl)c3)nn21 (single isomer, unassigned) [Compound A120, N^5-(tert-Butyl)-2-(3-chloro-4-fluorophenyl)-7-isopropyl-6,7-dihydropyrazolo[1,5-a]pyrazine-3,5(4H)-dicarboxamide] |
| 100 to 2000 | 10 to 100 | – | – | CC(C)(C)C1CN(C(=O)NC2CC(F)(F)C2)Cc2c(C(N)=O)c(-c3ccc(F)c(Cl)c3)nn21 (single isomer, unassigned) [Compound A121, 7-(tert-Butyl)-2-(3-chloro-4-fluorophenyl)-N5-(3,3-difluorocyclobutyl)-6,7-dihydropyrazolo[1,5-a]pyrazine-3,5(4H)-dicarboxamide] |
| 0.01 to 10 | 0.01 to 10 | – | – | CC(C)(C)C1CN(C(=O)NC2CC(F)(F)C2)Cc2c(C(N)=O)c(-c3ccc(F)c(Cl)c3)nn21 (single isomer, unassigned) [Compound A122, 7-(tert-Butyl)-2-(3-chloro-4-fluorophenyl)-N5-(3,3-difluorocyclobutyl)-6,7-dihydropyrazolo[1,5-a]pyrazine-3,5(4H)-dicarboxamide] |
| 10 to 100 | 10 to 100 | – | – | NC(=O)c1c(-c2ccc(F)c(Cl)c2)nn2c1CN(C(=O)NC1CC(F)(F)C1)CC2C(F)(F)F (single isomer, unassigned) [Compound A125, 2-(3-Chloro-4-fluorophenyl)-N^5-(3,3-difluorocyclobutyl)-7-(trifluoromethyl)-6,7-dihydropyrazolo[1,5-a]pyrazine-3,5(4H)-dicarboxamide] |
| 0.01 to 10 | 0.01 to 10 | – | – | NC(=O)c1c(-c2ccc(F)c(Cl)c2)nn2c1CN(C(=O)NC1CC(F)(F)C1)CC2C(F)(F)F (single isomer, unassigned) [Compound A126, 2-(3-Chloro-4-fluorophenyl)-N^5-(3,3-difluorocyclobutyl)-7-(trifluoromethyl)-6,7-dihydropyrazolo[1,5-a]pyrazine-3,5(4H)-dicarboxamide] |
| 100 to 2000 | 10 to 100 | – | – | CC(C)(C)NC(=O)N1Cc2c(C(N)=O)c(-c3ccc(F)c(Cl)c3)nn2C(C(F)(F)F)C1 (single isomer, unassigned) [Compound A127, N^5-(tert-Butyl)-2-(3-chloro-4-fluorophenyl)-7-(trifluoromethyl)-6,7-dihydropyrazolo[1,5-a]pyrazine-3,5(4H)-dicarboxamide] |
| 0.01 to 10 | 0.01 to 10 | – | – | CC1CN(C(=O)NC(C)(C)C)Cc2c(C(N)=O)c(-c3cccc(Cl)c3)nn21 (stereo not shown) [A8] |
| 0.01 to 10 | 0.01 to 10 | – | – | NC(=O)c1c(-c2cccc(Cl)c2)nn2c1CN(C(=O)NC1CC(F)(F)C1)CC21CC1 [A130] |

— patent US9273058B2 (BRISTOL-MYERS SQUIBB COMPANY, priority 2013, dated 2016)
